This test has as its target T1, Interleukin-1 receptor-associated kinase 4 (Homo sapiens, UniProt Q9NWZ3).
T1 sequence (Q9NWZ3 whole entry): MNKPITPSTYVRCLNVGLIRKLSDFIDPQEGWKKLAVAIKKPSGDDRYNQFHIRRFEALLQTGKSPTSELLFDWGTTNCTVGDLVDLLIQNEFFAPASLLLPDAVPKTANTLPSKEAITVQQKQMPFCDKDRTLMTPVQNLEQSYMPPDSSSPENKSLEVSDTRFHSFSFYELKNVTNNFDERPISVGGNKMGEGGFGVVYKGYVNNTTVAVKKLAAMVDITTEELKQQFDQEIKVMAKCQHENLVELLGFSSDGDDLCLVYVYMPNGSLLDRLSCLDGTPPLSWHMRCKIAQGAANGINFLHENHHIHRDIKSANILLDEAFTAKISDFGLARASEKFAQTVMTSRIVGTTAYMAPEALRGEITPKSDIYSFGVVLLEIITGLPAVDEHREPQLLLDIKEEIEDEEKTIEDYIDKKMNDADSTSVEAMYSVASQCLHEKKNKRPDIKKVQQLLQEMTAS
Kind of test: IRAK4 Kinase Inhibition Assay. How it is done: In this assay, Cisbio HTRF KinEASE-STK SI kit (62S 1 PEB) was used, in which assay/detection buffer, STK Substrate 1-biotin, Streptavidin-XL665, STK Antibody-Cryptate were contained. After adding compound/DMSO to a 384-well plate (PerkinElmer 6008280) using Echo 665, 5 μL of 2-fold reaction concentration of IRAK4 kinase protein (final concentration: 10 nM) dissolved with assay buffer [1 volume of 5× kinase buffer+20 mM magnesium chloride (Sigma) solution+1 mM DTT (Alfa Aesar) solution+4 volumes deionized water] was added, followed by sealing the shallow well plate, shaking and then centrifuging at 1000 rpm for 1 min, and incubating at room temperature for 5 min; then 5 μL of 2-fold reaction concentration of a 1:1 mixture of STK Substrate 1-biotin (final concentration: 1 μM) and ATP (Sigma A1852) (final concentration: 200 μM) formulated with assay buffer was added, followed by sealing the shallow well plate, shaking and then centrifuging at 1000 rpm for 1 min, and incubating at 37° C. for 2 h, and then 10 μL of a 1:1 mixture of Streptavidin-XL665 (final concentration: 62.5 nM) and STK-antibody-cryptate dissolved with detection buffer was added, followed by sealing the shallow well plate, shaking and then centrifuging at 1000 rpm for 1 min, and incubating at room temperature for 1 h, and thereafter reading the value at the wavelength of 620 nm/665 nm using a microplate reader.

Some results are limits rather than exact numbers.

Usually IC50 stands for the concentration that gives 50% inhibition.

For the molecule `OCC1CCC(n2cc(-n3cc(-c4cnn5ccc(C6CCOC6)nc45)nn3)c(C(F)F)n2)CC1` (stereo unspecified) [US20260028337, Compound 98A], the IC50 was under 100 nM.

The values above are taken from BindingDB's records for patent US20260028337 (Shenzhen Zhongge Biological Technology, 2026).
